33 compounds from patent publication US11279683B2, “Thiophene derivatives as antiviral agents” (ENYO PHARMA, priority 2016, dated 2022) can be followed below.

SMILES strings stand for the structures.

The first assay deals with H1N1 (influenza A/New Caledonia/20/99). Briefly: microbe, parasite or virus in culture. It counts as cell-based.
Conditions: not given
The compound `O=C(Nc1ccc(Cl)cc1)c1c(NC(=O)C2CCC(C(=O)O)CC2)sc2c1CCC2` (single isomer, unassigned) [Compound 98, 4-[[3-[(4-chlorophenyl)carbamoyl]-5,6-dihydro-4H-cyclopenta[b]thiophen-2-yl]carbamoyl]cyclohexanecarboxylic acid] yielded an IC50 of 15.9 µM.

The same assay, now with this note: Influenza A virus, H1N1, A549, 48 h.
`NS(=O)(=O)N1CCCCC1C(=O)Nc1sc2c(c1C(=O)Nc1ccc(Cl)cc1)CCC2` (stereo not drawn) [Compound 80, N-[3-[(4-chlorophenyl)carbamoyl]-5,6-dihydro-4H-cyclopenta[b]thiophen-2-yl]-1-sulfamoyl-piperidine-2-carboxamide] showed an IC50 of 2.25 µM.

Regarding `O=C(Cc1cnccn1)Nc1sc2c(c1C(=O)Nc1ccc(Cl)cc1)CCC2` [Compound 78, N-(4-chlorophenyl)-2-[(2-pyrazin-2-ylacetyl)amino]-5,6-dihydro-4H-cyclopenta[b]thiophene-3-carboxamide], the IC50 was 1 µM.

The compound `O=C(CC1CCOCC1)Nc1sc2c(c1C(=O)Nc1ccc(Cl)cc1)CCC2` [Compound 81, N-(4-chlorophenyl)-2-[(2-tetrahydropyran-4-ylacetyl)amino]-5,6-dihydro-4H-cyclopenta[b]thiophene-3-carboxamide] registered an IC50 of 3.9 µM.

Consider `O=C(Nc1ccc(C(F)(F)F)nc1)c1c(NC(=O)C2CCCCC2C(=O)O)sc2c1CCC2` (stereo not drawn) [Compound 32, 2-[[3-[[6-(Trifluoromethyl)-3-pyridyl]carbamoyl]-5,6-dihydro-4H-cyclopenta[b]thiophen-2-yl]carbamoyl]cyclohexanecarboxylic acid], for which inhibition was half-maximal at 22 µM (IC50).

`O=C(Nc1ncc(Cl)s1)c1c(NC(=O)C2CCCCC2C(=O)O)sc2c1CCC2` (stereo not drawn) [Compound 29, 2-[[3-[(5-Chlorothiazol-2-yl)carbamoyl]-5,6-dihydro-4H-cyclopenta[b]thiophen-2-yl]carbamoyl]cyclohexanecarboxylic acid] displayed a 50% inhibitory concentration (IC50) of 6.78 µM.

Consider `O=C(Nc1ccc(Cl)cc1)c1c(NC(=O)C2CCCCC2CO)sc2c1CCC2` (stereo not drawn) [Compound 56, N-(4-Chlorophenyl)-2-[[2-(hydroxymethyl)cyclohexanecarbonyl]amino]-5,6-dihydro-4H-cyclopenta[b]thiophene-3-carboxamide], for which the IC50 worked out at 24 µM.

Take `O=C(Nc1ccc(Cl)cc1)c1c(NC(=O)C2COCCN2)sc2c1CCC2` (stereo not drawn) [Compound 103, N-[3-[(4-chlorophenyl)carbamoyl]-5,6-dihydro-4H-cyclopenta[b]thiophen-2-yl]morpholine-3-carboxamide]: inhibition was half-maximal at 24.2 µM (IC50).

As to `O=C(O)C1CCCCC1C(=O)Nc1sc2c(c1C(=O)N1CCN(c3ccc(Cl)cc3)CC1)CCC2` (stereo not drawn) [Compound 36, 2-[[3-[4-(4-chlorophenyl)piperazine-1-carbonyl]-5,6-dihydro-4H-cyclopenta[b]thiophen-2-yl]carbamoyl]cyclohexanecarboxylic acid], the 50% inhibitory concentration (IC50) was found to be 21 µM.

On to `CC(=O)c1cccc(NC(=O)c2c(NC(=O)C3CCCCC3C(=O)O)sc3c2CCC3)c1` (stereo not drawn) [Compound 12, 2-[[3-[(3-Acetylphenyl)carbamoyl]-5,6-dihydro-4H-cyclopenta[b]thiophen-2-yl]carbamoyl]cyclohexanecarboxylic acid], for which the IC50 was 21.2 µM.

Turning to `O=C(Nc1ccccc1)c1c(NC(=O)C2CCCCC2C(=O)O)sc2c1CCC2` (stereo not drawn) [Compound 74, 2-[[3-(Phenylcarbamoyl)-5,6-dihydro-4H-cyclopenta[b]thiophen-2-yl]carbamoyl]cyclohexanecarboxylic acid], the midpoint of inhibition, the IC50, lay at 12.4 µM.

`Cc1cccc(NC(=O)c2c(NC(=O)C3CCCCC3C(=O)O)sc3c2CCCC3)c1` (stereo not drawn) [Compound 69, 2-[[3-(m-Tolylcarbamoyl)-4,5,6,7-tetrahydrobenzothiophen-2-yl]carbamoyl]cyclohexanecarboxylic acid] displayed a 50% inhibitory concentration (IC50) of 13.9 µM.

With `NC(=O)C1CCCCC1C(=O)Nc1sc2c(c1C(=O)Nc1ccc(Cl)cc1)CCC2` (stereo not drawn) [Compound 55, N2-[3-[(4-Chlorophenyl)carbamoyl]-5,6-dihydro-4H-cyclopenta[b]thiophen-2-yl]cyclohexane-1,2-dicarboxamide], it took 27 µM to reach half-maximal inhibition (IC50).

`O=C(Nc1ccc(Cl)cc1)c1c(NC(=O)C2COC2)sc2c1CCC2` [Compound 94, N-[3-[(4-chlorophenyl)carbamoyl]-5,6-dihydro-4H-cyclopenta[b]thiophen-2-yl]oxetane-3-carboxamide] returned a 50% inhibitory concentration (IC50) of 12.9 µM.

On to `O=C1CC(C(=O)Nc2sc3c(c2C(=O)Nc2ccc(Cl)cc2)CCC3)CCN1` (stereo not drawn) [Compound 101, N-[3-[(4-chlorophenyl)carbamoyl]-5,6-dihydro-4H-cyclopenta[b]thiophen-2-yl]-2-oxo-piperidine-4-carboxamide], for which half-maximal inhibition (IC50) was put at 19 µM.

As for `O=C(NCC1CCCCC1)c1c(NC(=O)C2CCCCC2C(=O)O)sc2c1CCC2` (stereo not drawn) [Compound 24, 2-[[3-(Cyclohexylmethylcarbamoyl)-5,6-dihydro-4H-cyclopenta[b]thiophen-2-yl]carbamoyl]cyclohexanecarboxylic acid], it took 12.3 µM to reach half-maximal inhibition (IC50).

The compound `N#Cc1ccc(NC(=O)c2c(NC(=O)C3CCCCC3C(=O)O)sc3c2CCC3)cc1` (stereo not drawn) [Compound 28, 2-[[3-[(4-Cyanophenyl)carbamoyl]-5,6-dihydro-4H-cyclopenta[b]thiophen-2-yl]carbamoyl]cyclohexanecarboxylic acid] gave a concentration for half-maximal inhibition (IC50) of 15.9 µM.

With `CN(C(=O)c1c(NC(=O)C2CCCCC2C(=O)O)sc2c1CCC2)c1ccc(Cl)cc1` (stereo not drawn) [Compound 34, 2-[[3-[(4-Chlorophenyl)-methyl-carbamoyl]-5,6-dihydro-4H-cyclopenta[b]thiophen-2-yl]carbamoyl]cyclohexanecarboxylic acid], the IC50 stood at 30.4 µM.

`O=C(NCc1ccccc1)c1c(NC(=O)C2CCCCC2C(=O)O)sc2c1CCC2` (stereo not drawn) [Compound 63, 2-[[3-(Benzylcarbamoyl)-5,6-dihydro-4H-cyclopenta[b]thiophen-2-yl]carbamoyl]cyclohexanecarboxylic acid] gave a 50% inhibitory concentration (IC50) of 21.4 µM.

Take `CO[C@H]1CC[C@H](NC(=O)c2c(NC(=O)C3CCCCC3C(=O)O)sc3c2CCC3)CC1` (stereo partly drawn) [Compound 8, 2-[[3-[(Trans-4-methoxycyclohexyl)carbamoyl]-5,6-dihydro-4H-cyclopenta[b]thiophen-2-yl]carbamoyl]cyclohexanecarboxylic acid]: the IC50 came to 27.4 µM.

With `O=C(Nc1ccc(Cl)cc1)c1c(NC(=O)C2CCC(C(=O)O)CC2)sc2c1CCC2` (single isomer, unassigned) [Compound 97, 4-[[3-[(4-chlorophenyl)carbamoyl]-5,6-dihydro-4H-cyclopenta[b]thiophen-2-yl]carbamoyl]cyclohexanecarboxylic acid], the 50% inhibitory concentration (IC50) was determined as 14.7 µM.

`CS(=O)(=O)N1CCCC(C(=O)Nc2sc3c(c2C(=O)Nc2ccc(Cl)cc2)CCC3)C1` (stereo not drawn) [Compound 95, N-[3-[(4-chlorophenyl)carbamoyl]-5,6-dihydro-4H-cyclopenta[b]thiophen-2-yl]-1-methylsulfonyl-piperidine-3-carboxamide] returned a half-maximal inhibitory concentration (IC50) of 13.7 µM.

For the compound `O=C(Nc1ccc(CCO)cc1)c1c(NC(=O)C2CCCCC2C(=O)O)sc2c1CCC2` (stereo not drawn) [Compound 9, 2-[[3-[[4-(2-Hydroxyethyl)phenyl]carbamoyl]-5,6-dihydro-4H-cyclopenta[b]thiophen-2-yl]carbamoyl]cyclohexanecarboxylic acid], the concentration for half-maximal inhibition (IC50) was 21.1 µM.

In turn, `CC1CCC(NC(=O)c2c(NC(=O)C3CCCCC3C(=O)O)sc3c2CCC3)CC1` (stereo not drawn) [Compound 35, 2-[[3-[(4-Methylcyclohexyl)carbamoyl]-5,6-dihydro-4H-cyclopenta[b]thiophen-2-yl]carbamoyl]cyclohexanecarboxylic acid] displayed an IC50 of 12.4 µM.

Regarding `O=C(Nc1ccc(Cl)cc1)c1c(NC(=O)C2CCN2)sc2c1CCC2` (stereo not drawn) [Compound 96, N-[3-[(4-chlorophenyl)carbamoyl]-5,6-dihydro-4H-cyclopenta[b]thiophen-2-yl]azetidine-2-carboxamide], the IC50 was found to be 14.1 µM.

With `O=C1CCCC(C(=O)Nc2sc3c(c2C(=O)Nc2ccc(Cl)cc2)CCC3)C1` (stereo not drawn) [Compound 53, N-(4-Chlorophenyl)-2-[(3-oxocyclohexanecarbonyl)amino]-5,6-dihydro-4H-cyclopenta[b]thiophene-3-carboxamide], the midpoint of inhibition, the IC50, lay at 12.8 µM.

For the compound `Cc1cccc(NC(=O)c2c(NC(=O)C3CCCCC3C(=O)O)sc3c2CCC3)c1` (stereo not drawn) [Compound 58, 2-[[3-(m-Tolylcarbamoyl)-5,6-dihydro-4H-cyclopenta[b]thiophen-2-yl]carbamoyl]cyclohexanecarboxylic acid], it took 27.6 µM to reach half-maximal inhibition (IC50).

In turn, `O=C(O)c1ccccc1C(=O)Nc1sc2c(c1C(=O)Nc1ccc(Cl)cc1)CCC2` [Compound 44, 2-[[3-[(4-Chlorophenyl)carbamoyl]-5,6-dihydro-4H-cyclopenta[b]thiophen-2-yl]carbamoyl]benzoic acid] yielded an IC50 of 21.6 µM.

On to `O=C(Nc1ccc(Cl)cc1)c1c(NC(=O)C2CCCCC2C(=O)O)sc2c1CCOC2` (stereo not drawn) [Compound 37, 2-[[3-[(4-Chlorophenyl)carbamoyl]-5,7-dihydro-4H-thieno[2,3-c]pyran-2-yl]carbamoyl]cyclohexanecarboxylic acid], for which the IC50 was found to be 43.4 µM.

`NC(=O)N1CCCC(C(=O)Nc2sc3c(c2C(=O)Nc2ccc(Cl)cc2)CCC3)C1` (stereo not drawn) [Compound 92, N3-[3-[(4-chlorophenyl)carbamoyl]-5,6-dihydro-4H-cyclopenta[b]thiophen-2-yl]piperidine-1,3-dicarboxamide] returned a concentration for half-maximal inhibition (IC50) of 11.4 µM.

Compound `O=C(Nc1ccc(Cl)nc1)c1c(NC(=O)C2CCCCC2C(=O)O)sc2c1CCC2` (stereo not drawn) [Compound 2, 2-[[3-[(6-Chloro-3-pyridyl)carbamoyl]-5,6-dihydro-4H-cyclopenta[b]thiophen-2-yl]carbamoyl]cyclohexanecarboxylic acid] had a half-inhibitory concentration (IC50) of 18 µM.

Compound `Cc1ccc(NC(=O)c2c(NC(=O)C3CCCCC3C(=O)O)sc3c2CCC3)cc1` (stereo not drawn) [Compound 66, 2-[[3-(p-Tolylcarbamoyl)-5,6-dihydro-4H-cyclopenta[b]thiophen-2-yl]carbamoyl]cyclohexanecarboxylic acid] registered a concentration for half-maximal inhibition (IC50) of 11.7 µM.

The compound `CC(C)(C)c1ccc(NC(=O)c2c(NC(=O)C3CCCCC3C(=O)O)sc3c2CCC3)cc1` (stereo not drawn) [Compound 21, 2-[[3-[(4-tert-Butylphenyl)carbamoyl]-5,6-dihydro-4H-cyclopenta[b]thiophen-2-yl]carbamoyl]cyclohexanecarboxylic acid] had an IC50 of 4.68 µM.
